The results in this text go back to patent publication US11466012B2, “Tetrahydroisoquinoline compounds” (ALLINKY BIOPHARMA, priority 2018, dated 2022).

Assay type in all cases: cell-based
For test [1], the system named is H358 non-small cell lung cancer line bearing KRas^G12C oncogenic mutation. In words: Cell proliferation inhibition (MTS), H358. As to conditions: Homo sapiens, NCI-H358; 72 h incubation, MTS; compounds 1-53, median from experimental results. The method, then:
(§1) • Cell line #1: A549. Lung carcinoma cell line bearing KRas^G12S oncogenic mutation • Cell line #2: H358. non-small cell lung cancer line bearing KRas^G12C oncogenic mutation • Cell line #3: PANC-1. epithelioid carcinoma of the pancreas cell line bearing KRas^G12D oncogenic mutation • Cell line #4: RPMI. myeloma cell line bearing KRas^G12A oncogenic mutation
(§2) Cell lines were cultured in DMEM or RPMI-1640 supplemented with FBS 10%. In order to assess the antiproliferative effect of compounds, cells were seeded at a density of 1.8×10^3, 6.2×10^3, 7.8×10^3, 21×10^3 and 2×10^3 cells/cm^2, respectively, in tissue culture microplates and were incubated in humidified atmosphere at 5% CO2. 24 h later, compounds dissolved in DMSO 100% were added for different final concentrations ranging between 0.1 and 50 μM for a final DMSO concentration of 0.5% and the plates were incubated for another 72 h. After incubation, proliferation was quantified using CellTiter 96® Aqueous Non-Radioactive Cell Proliferation Assay-MTS (Promega #G5421) following manufacturer instructions. Amount of 490 nm absorbance is directly proportional to the number of living cells. Absorbance was recorded with a BMG Fluostar Optima Microplate Reader and normalized to control with vehicle.

Test [2] relates to A549 lung carcinoma cell line bearing KRas^G12S oncogenic mutation. In words: Cell proliferation inhibition (MTS), A549. As to conditions: Homo sapiens, 72 h incubation, MTS, compounds 1-53, median from experimental results. As for the experimental part:
as §1, §2

Test [3] relates to RPMI-8226 myeloma cell line bearing KRas^G12A oncogenic mutation. Description: Cell proliferation inhibition (MTS), RPMI-8226. As to conditions: Homo sapiens, 72 h incubation, MTS, compounds 1-53, median from experimental results. As for the experimental part:
as §1, §2

Test [4] relates to PANC-1 epithelioid carcinoma of the pancreas cell line bearing KRas^G12D oncogenic mutation. Description: Cell proliferation inhibition (MTS), PANC-1. As to conditions: Homo sapiens, 72 h incubation, MTS, compounds 1-53, median from experimental results. As for the experimental part: as §1, §2

Some results are limits rather than exact numbers.

As to `CCC(=O)CCN1CCc2cc(OC)c(OCc3cccc(O)c3)cc2C1c1ccc(C)cc1Cl` (stereo not drawn) [Compound 2], the IC50 in test [1] is 12100 nM; in test [2] it was 8250 nM; in test [3], 1800 nM; in test [4], 17300 nM.
Turning to `COc1cc2c(cc1OCCc1cccc(OC(C)=O)c1)C(c1ccc(C)cc1C)N(C(=O)NCc1cocn1)CC2` (stereo not drawn) [Compound 3], the half-maximal inhibitory concentration (IC50) in test [1] was determined as 1660 nM; in test [2], 1970 nM; in test [3], 1210 nM; in test [4], 1590 nM.
Regarding `CCC(=O)CCN1CCc2cc(OC)c(OCC(=O)c3cccc(C(=O)OC)c3)cc2C1c1ccc(C)cc1Cl` (stereo not drawn) [Compound 4], the IC50 in test [1] was above 20000 nM; in test [2] it was 10100 nM; in test [3] it was 2670 nM; in test [4], 29700 nM.
For `COc1cc2c(cc1OCCc1cccc(O)c1)C(c1c(O)cc(C)cc1Cl)N(CCC(C)=O)CC2` (stereo not drawn) [Compound 5], the half-maximal inhibitory concentration (IC50) was above 20000 nM in test [1], 4820 nM in test [2], 1510 nM in test [3] and above 30000 nM in test [4].
For `CCC(=O)CCN1CCc2cc(OC)c(OCCc3cccc(O)c3)cc2C1c1ccc(C)cc1C` (stereo not drawn) [Compound 7], the IC50 came to 18100 nM in test [1], 6340 nM in test [2], 2410 nM in test [3] and 24800 nM in test [4].
In the case of `CCC(=O)CCN1CCc2cc(OC)c(OCCc3cccc(O)c3)cc2C1c1ccc(OC)c(OC)c1Cl` (stereo not drawn) [Compound 8], the concentration for half-maximal inhibition (IC50) amounted to 11200 nM in test [1], 4110 nM in test [2], 2110 nM in test [3] and 11100 nM in test [4].
For `CCC(=O)CCN1CCc2cc(OC)c(OCCc3cccc(O)c3)cc2C1c1ccccc1C` (stereo not drawn) [Compound 9], the concentration for half-maximal inhibition (IC50) in test [1] amounted to 19000 nM; in test [2], 3650 nM; in test [3], 740 nM; in test [4] it was 24500 nM.
On to `COc1cc2c(cc1OCCc1cccc(O)c1)C(c1c(C)cc(C)cc1O)N(CCC(C)=O)CC2` (stereo not drawn) [Compound 10], for which the IC50 in test [1] worked out at 19800 nM; in test [2], 15900 nM; in test [3], 860 nM; in test [4] it was 15000 nM.
In the same order, the values of `COc1ccc(C2c3cc(OCCc4cccc(O)c4)c(OC)cc3CCN2CCC(C)=O)c(C)c1` (stereo not drawn) [Compound 11] are 8520 nM, 18000 nM, 1470 nM and 12300 nM.
As to `CCC(=O)CN1CCc2cc(OC)c(OCCc3cccc(O)c3)cc2C1c1ccc(C)cc1Cl` (stereo not drawn) [Compound 12], the IC50 in test [1] is 16800 nM; in test [2] it was 8990 nM; in test [3], 4980 nM; in test [4], 13600 nM.
In the same order, the values of `COc1cc2c(cc1OCCc1cccc(O)c1)C(c1ccc(C)cc1Cl)N(C(=O)NCc1ccncc1)CC2` (stereo not drawn) [Compound 13] are 15800 nM, 9370 nM, 2860 nM and 12600 nM.
In the case of `COc1cc2c(cc1OCCc1ccc3c(c1)CCC3)C(c1ccc(C)cc1C)N(C(=O)NCc1ccncc1)CC2` (stereo not drawn) [Compound 14], the IC50 in test [1] was above 10000 nM; in test [2], above 10000 nM; in test [3], 3940 nM; in test [4] it was above 30000 nM.
For the compound `COc1cc2c(cc1OCCc1ccc3c(c1)CCO3)C(c1ccc(C)cc1C)N(C(=O)NCc1ccncc1)CC2` (stereo not drawn) [Compound 15], the half-inhibitory concentration (IC50) came to 2580 nM in test [1], 2140 nM in test [2], 890 nM in test [3] and 2130 nM in test [4].
In the same order, the values of `COc1cc2c(cc1OCCc1cccc(O)c1)C(c1ccc(C)cc1C)N(C(=O)NCc1ccncc1)CC2` (stereo not drawn) [Compound 16] are 7240 nM, above 5000 nM, 480 nM and 12000 nM.
On the same counts, the results for `COc1cc2c(cc1OCCc1cccc(O)c1)C(c1ccc(C)cc1C)N(C(=O)NCc1cncs1)CC2` (stereo not drawn) [Compound 19] are 680 nM, 950 nM, 2930 nM and 570 nM.
In the case of `COc1cc2c(cc1OCCc1cccc(O)c1)C(c1ccc(C)cc1C)N(C(=O)NCc1ccccn1)CC2` (stereo not drawn) [Compound 20], the concentration for half-maximal inhibition (IC50) was 480 nM in test [1], 750 nM in test [2], 600 nM in test [3] and 560 nM in test [4].
On the same counts, the results for `COc1cc2c(cc1OCCc1cccc(F)c1)C(c1ccc(C)cc1C)N(C(=O)NCc1cocn1)CC2` (stereo not drawn) [Compound 21] are 780 nM, 1330 nM, 900 nM and 810 nM.
Take `COc1cc2c(cc1OCCc1ccccc1)C(c1ccc(C)cc1C)N(C(=O)NCc1cocn1)CC2` (stereo not drawn) [Compound 22]: the IC50 amounted to 650 nM in test [1], 890 nM in test [2], 820 nM in test [3] and 600 nM in test [4].
In the case of `Cc1ccc(C2c3cc(OCCc4cccc(O)c4)c(C(N)=O)cc3CCN2C(=O)NCc2cocn2)c(C)c1` (stereo not drawn) [Compound 24], the half-maximal inhibitory concentration (IC50) in test [1] is 840 nM; in test [2], 740 nM; in test [3] it was 870 nM; in test [4], 660 nM.
On the same counts, the results for `Cc1ccc(C2c3cc(OCCc4cccc(O)c4)c(O)cc3CCN2C(=O)NCc2cocn2)c(C)c1` (stereo not drawn) [Compound 25] are 520 nM, 550 nM, 580 nM and 530 nM.
On the same counts, the results for `COc1cc2c(cc1OCCc1cccc(C(N)=O)c1)C(c1ccc(C)cc1C)N(C(=O)NCc1cocn1)CC2` (stereo not drawn) [Compound 27] are 1120 nM, 1020 nM, 980 nM and 1330 nM.
In the case of `Cc1ccc(C2c3cc(OCCc4cccc(C(N)=O)c4)c(C(N)=O)cc3CCN2C(=O)NCc2cocn2)c(C)c1` (stereo not drawn) [Compound 28], the IC50 stood at 1230 nM in test [1], 1560 nM in test [2], 1020 nM in test [3] and 2010 nM in test [4].
Consider `COc1cc2c(cc1OCCc1cccc(O)c1)C(c1ccc(C)cc1Cl)N(C(=O)NCc1cocn1)CC2` (stereo not drawn) [Compound 29], for which the concentration for half-maximal inhibition (IC50) in test [1] is 960 nM; in test [2], 760 nM; in test [3], 690 nM; in test [4], 680 nM.
On the same counts, the results for `COc1cc2c(cc1OCCc1cccc(C(=O)O)c1)C(c1ccc(C)cc1C)N(C(=O)NCc1cocn1)CC2` (stereo not drawn) [Compound 31] are 2110 nM, 2070 nM, 1910 nM and 1830 nM.
In the case of `Cc1ccc(C2c3cc(OCCc4cccc(O)c4)c(C(=O)O)cc3CCN2C(=O)NCc2cocn2)c(C)c1` (stereo not drawn) [Compound 32], the IC50 in test [1] came out at 310 nM; in test [2] it was 440 nM; in test [3], 520 nM; in test [4] it was 490 nM.
`Cc1ccc(C2c3cc(OCCc4cccnc4)c(C(N)=O)cc3CCN2C(=O)NCc2cocn2)c(C)c1` (stereo not drawn) [Compound 34, 1-(2,4-dimethylphenyl)-N2-(oxazol-4-ylmethyl)-7-(2-(pyridin-3-yl)ethoxy)-3,4-dihydroisoquinoline-2,6(1H)-dicarboxamide]: the IC50 in test [1] turned out to be 390 nM; in test [2], 430 nM; in test [3], 720 nM; in test [4], 420 nM.
As to `Cc1ccc(C2c3cc(OCCc4cccnc4)c(C(=O)O)cc3CCN2C(=O)NCc2cocn2)c(C)c1` (stereo not drawn) [Compound 35], the 50% inhibitory concentration (IC50) in test [1] was found to be 510 nM; in test [2], 330 nM; in test [3] it was 320 nM; in test [4], 430 nM.
As to `Cc1ccc(C2c3cc(OCCc4cccnc4)c(NC=O)cc3CCN2C(=O)NCc2cocn2)c(C)c1` (stereo not drawn) [Compound 36], the IC50 turned out to be 910 nM in test [1], 730 nM in test [2], 990 nM in test [3] and 670 nM in test [4].
On to `CC(=O)Nc1cc2c(cc1OCCc1cccnc1)C(c1ccc(C)cc1C)N(C(=O)NCc1cocn1)CC2` (stereo not drawn) [Compound 37], for which the half-maximal inhibitory concentration (IC50) in test [1] came out at 710 nM; in test [2], 810 nM; in test [3] it was 1210 nM; in test [4], 740 nM.
Consider `Cc1ccc(C2c3cc(OCCc4cccnc4)c(Cl)cc3CCN2C(=O)NCc2cocn2)c(C)c1` (stereo not drawn) [Compound 38], for which the IC50 in test [1] was determined as 1090 nM; in test [2] it was 430 nM; in test [3], 220 nM; in test [4] it was 420 nM.
As to `CC(=O)c1cc2c(cc1OCCc1cccnc1)C(c1ccc(C)cc1C)N(C(=O)NCc1cocn1)CC2` (stereo not drawn) [Compound 39], the IC50 in test [1] stood at 520 nM; in test [2], 340 nM; in test [3], 410 nM; in test [4] it was 470 nM.
For the compound `CC(=O)Cc1cc2c(cc1OCCc1cccnc1)C(c1ccc(C)cc1C)N(C(=O)NCc1cocn1)CC2` (stereo not drawn) [Compound 40], the IC50 in test [1] was 960 nM; in test [2], 820 nM; in test [3], 1330 nM; in test [4] it was 810 nM.
Regarding `Cc1ccc(C2c3cc(OCCc4cccnc4)c(CO)cc3CCN2C(=O)NCc2cocn2)c(C)c1` (stereo not drawn) [Compound 41], the IC50 in test [1] amounted to 1140 nM; in test [2] it was 1270 nM; in test [3], 1380 nM; in test [4], 2110 nM.

As usually defined, the IC50 is the concentration that inhibits the measured activity by half. High values mean weaker potency, low ones greater potency.
